Where two headings read alike, the source gives them in different places.
Tested on: RS4;11 cells
Assay: RS4;11 cell viability assay (CellTiter Glo);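 further: acute lymphoblastic leukemia line RS4,11, EC50 derived from percentage of viable cells after treatment relative to untreated controls, cell killing taken as a measure of Bcl-2 inhibition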
Type: cell-based, human
Conditions: read-out: RS4
[1] = Homo sapiens, RS4-11, 48 h, 50,000 cells per well, 10% human serum, 48 hours, 11 EC50 Values
[2] = Homo sapiens, RS4-11, Table 5, direct comparison Z=N with corresponding analogs Z=C, 11 EC50
[3] = Homo sapiens, RS4-11, Table 4, selected compounds in U.S. Pat. Application No. 12/631404, 11 EC50

Experimental: The acute lymphoblastic leukemia (ALL) cell line RS4;11 was used as the primary human cell line to assess the cellular activity of Bcl-2 selective agents in vitro and their efficacy in vivo.
Cell cytotoxicity EC50 values were assessed using CellTiter Glo (Promega) according to the manufacturer's recommendations. The EC50 values were determined as a percentage of viable cells following treatment compared to the untreated control cells.

Compound | EC50 (Table 5, direct comparison Z=N with corresponding analogs Z=C, 11 EC50) | EC50 [1] | EC50 [2] | EC50 [3]
4-{4-[(4′-chloro-1,1′-biphenyl-2-yl)methyl]piperazin-1-yl}-2-(1H-indol-5-yloxy)-N-({3-nitro-4-[(tetrahydro-2H-pyran-4-ylmethyl)amino]phenyl}sulfonyl) benzamide [Example 87] | 1180 nM |  |  | 
CC1(C)CCC(CN2CCN(c3ccc(C(=O)NS(=O)(=O)c4ccc(NC5CCN([C@H]6CCOC[C@H]6F)CC5)c([N+](=O)[O-])c4)c(Oc4cnc5[nH]ccc5c4)c3)CC2)=C(c2ccc(Cl)cc2)C1 (relative stereo) [Example 115, 4-(4-{[2-(4-chlorophenyl)-4,4-dimethylcyclohex-1-en-1-yl]methyl}piperazin-1-yl)-N-{[4-({1-[cis-3-fluorotetrahydro-2H-pyran-4-yl]piperidin-4-yl}amino)-3-nitrophenyl]sulfonyl}-2-(1H-pyrrolo[2,3-b]pyridin-5-yloxy)benzamide] |  | 11.8 nM |  | 
CC1(C)CCC(CN2CCN(c3ccc(C(=O)NS(=O)(=O)c4ccc(OC[C@@H]5CN(C6COC6)C[C@H]5CF)c([N+](=O)[O-])c4)c(Oc4cnc5[nH]ccc5c4)c3)CC2)=C(c2ccc(Cl)cc2)C1 (relative stereo) [Example 137, 4-(4-{[2-(4-chlorophenyl)-4,4-dimethylcyclohex-1-en-1-yl]methyl}piperazin-1-yl)-N-[(4-{[trans-4-(fluoromethyl)-1-oxetan-3-ylpyrrolidin-3-yl]methoxy}-3-nitrophenyl)sulfonyl]-2-(1H-pyrrolo[2,3-b]pyridin-5-yloxy)benzamide] |  | 12.7 nM |  | 
O=C(NS(=O)(=O)c1ccc(NCC2CCOCC2)c([N+](=O)[O-])c1)c1ccc(N2CCN(Cc3ccccc3-c3ccc(Cl)cc3)CC2)cc1Oc1cnc2[nH]ccc2c1 [Example 1, 4-{4-[(4′-chloro-1,1′-biphenyl-2-yl)methyl]piperazin-1-yl}-N-({3-nitro-4-[(tetrahydro-2H-pyran-4-ylmethyl)amino]phenyl}sulfonyl)-2-(1H-pyrrolo[2,3-b]pyridin-5-yloxy)benzamide] |  | 712 nM | 712 nM | 
O=C(NS(=O)(=O)c1ccc(NCCCN2CCOCC2)c([N+](=O)[O-])c1)c1ccc(N2CCN(Cc3ccccc3-c3ccc(Cl)cc3)CC2)cc1Oc1cnc2[nH]ccc2c1 [Example 2, 4-{4-[(4′-chloro-1,1′-biphenyl-2-yl)methyl]piperazin-1-yl}-N-({4-[(3-morpholin-4-ylpropyl)amino]-3-nitrophenyl}sulfonyl)-2-(1H-pyrrolo[2,3-b]pyridin-5-yloxy)benzamide] |  | 783 nM | 783 nM | 
CC1(C)CCC(CN2CCN(c3ccc(C(=O)NS(=O)(=O)c4ccc(NC5CCN(C6CCOCC6)CC5)c([N+](=O)[O-])c4)c(Oc4cnc5[nH]ccc5c4)c3)CC2)=C(c2ccc(Cl)cc2)C1 [Example 3, 4-(4-{[2-(4-chlorophenyl)-4,4-dimethylcyclohex-1-en-1-yl]methyl}piperazin-1-yl)-N-({3-nitro-4-[(1-tetrahydro-2H-pyran-4-ylpiperidin-4-yl)amino]phenyl}sulfonyl)-2-(1H-pyrrolo[2,3-b]pyridin-5-yloxy)benzamide] |  | 14.2 nM | 14.2 nM | 
CC1(C)CCC(CN2CCN(c3ccc(C(=O)NS(=O)(=O)c4ccc(NCC5CCOCC5)c([N+](=O)[O-])c4)c(Oc4cnc5[nH]ccc5c4)c3)CC2)=C(c2ccc(Cl)cc2)C1 [Example 5, 4-(4-{[2-(4-chlorophenyl)-4,4-dimethylcyclohex-1-en-1-yl]methyl}piperazin-1-yl)-N-({3-nitro-4-[(tetrahydro-2H-pyran-4-ylmethyl)amino]phenyl}sulfonyl)-2-(1H-pyrrolo[2,3-b]pyridin-5-yloxy)benzamide] |  | 12.4 nM | 12 nM | 
CN1CCN(Nc2ccc(S(=O)(=O)NC(=O)c3ccc(N4CCN(CC5=C(c6ccc(Cl)cc6)CC(C)(C)CC5)CC4)cc3Oc3cnc4[nH]ccc4c3)cc2[N+](=O)[O-])CC1 [Example 6, 4-(4-{[2-(4-chlorophenyl)-4,4-dimethylcyclohex-1-en-1-yl]methyl}piperazin-1-yl)-N-({4-[(4-methylpiperazin-1-yl)amino]-3-nitrophenyl}sulfonyl)-2-(1H-pyrrolo[2,3-b]pyridin-5-yloxy)benzamide] |  | 34.9 nM | 35 nM | 
CN1CCC(Nc2ccc(S(=O)(=O)NC(=O)c3ccc(N4CCN(CC5=C(c6ccc(Cl)cc6)CC(C)(C)CC5)CC4)cc3Oc3cccc4[nH]c5ccccc5c34)cc2[N+](=O)[O-])CC1 [Example 7, 2-(9H-carbazol-4-yloxy)-4-(4-{[2-(4-chlorophenyl)-4,4-dimethylcyclohex-1-en-1-yl]methyl}piperazin-1-yl)-N-({4-[(1-methylpiperidin-4-yl)amino]-3-nitrophenyl}sulfonyl)benzamide] |  | 192 nM |  | 
CC1(C)CCC(CN2CCN(c3ccc(C(=O)NS(=O)(=O)c4ccc(NCCCN5CCCC5)c([N+](=O)[O-])c4)c(Oc4cccc5[nH]c6ccccc6c45)c3)CC2)=C(c2ccc(Cl)cc2)C1 [Example 8, 2-(9H-carbazol-4-yloxy)-4-(4-{[2-(4-chlorophenyl)-4,4-dimethylcyclohex-1-en-1-yl]methyl}piperazin-1-yl)-N-({3-nitro-4-[(3-pyrrolidin-1-ylpropyl)amino]phenyl}sulfonyl)benzamide] |  | 158 nM |  | 
CC1(C)CCC(CN2CCN(c3ccc(C(=O)NS(=O)(=O)c4ccc(NC[C@@H]5CCCOC5)c([N+](=O)[O-])c4)c(Oc4cnc5[nH]ccc5c4)c3)CC2)=C(c2ccc(Cl)cc2)C1 [Example 11, 4-(4-{[2-(4-chlorophenyl)-4,4-dimethylcyclohex-1-en-1-yl]methyl}piperazin-1-yl)-N-[(3-nitro-4-{[(3S)-tetrahydro-2H-pyran-3-ylmethyl]amino}phenyl)sulfonyl]-2-(1H-pyrrolo[2,3-b]pyridin-5-yloxy)benzamide] |  | 13.9 nM | 14 nM | 
CC1(C)CCC(CN2CCN(c3ccc(C(=O)NS(=O)(=O)c4ccc5ccccc5c4)c(Oc4cnc5[nH]ccc5c4)c3)CC2)=C(c2ccc(Cl)cc2)C1 [Example 14, 4-(4-{[2-(4-chlorophenyl)-4,4-dimethylcyclohex-1-en-1-yl]methyl}piperazin-1-yl)-N-(2-naphthylsulfonyl)-2-(1H-pyrrolo[2,3-b]pyridin-5-yloxy)benzamide] |  | 3890 nM |  | 
COCCNc1ccc(S(=O)(=O)NC(=O)c2ccc(N3CCN(CC4=C(c5ccc(Cl)cc5)CC(C)(C)CC4)CC3)cc2Oc2cnc3[nH]ccc3c2)cc1S(=O)(=O)C(F)(F)F [Example 16, 4-(4-{[2-(4-chlorophenyl)-4,4-dimethylcyclohex-1-en-1-yl]methyl}piperazin-1-yl)-N-({4-[(2-methoxyethyl)amino]-3-[(trifluoromethyl)sulfonyl]phenyl}sulfonyl)-2-(1H-pyrrolo[2,3-b]pyridin-5-yloxy)benzamide] |  | 1210 nM | 1210 nM | 
CC1(C)CCC(CN2CCN(c3ccc(C(=O)NS(=O)(=O)c4ccc(NCC5CCOCC5)c(S(=O)(=O)C(F)(F)F)c4)c(Oc4cnc5[nH]ccc5c4)c3)CC2)=C(c2ccc(Cl)cc2)C1 [Example 17, 4-(4-{[2-(4-chlorophenyl)-4,4-dimethylcyclohex-1-en-1-yl]methyl}piperazin-1-yl)-2-(1H-pyrrolo[2,3-b]pyridin-5-yloxy)-N-({4-[(tetrahydro-2H-pyran-4-ylmethyl)amino]-3-[(trifluoromethyl)sulfonyl]phenyl}sulfonyl)benzamide] |  | 475 nM | 475 nM | 
CC1(C)CCC(CN2CCN(c3ccc(C(=O)NS(=O)(=O)c4ccc(NCC5CCOCC5)c([N+](=O)[O-])c4)c(Oc4ccc5[nH]ccc5c4)c3)CC2)=C(c2ccc(Cl)cc2)C1 [Example 18, 4-(4-{[2-(4-chlorophenyl)-4,4-dimethylcyclohex-1-en-1-yl]methyl}piperazin-1-yl)-2-(1H-indol-5-yloxy)-N-({3-nitro-4-[(tetrahydro-2H-pyran-4-ylmethyl)amino]phenyl}sulfonyl)benzamide] |  | 86 nM | 86 nM | 
CC1(C)CCC(CN2CCN(c3ccc(C(=O)NS(=O)(=O)c4ccc(N[C@H]5CC[C@H](N6CCOCC6)CC5)c([N+](=O)[O-])c4)c(Oc4ccc5[nH]ccc5c4)c3)CC2)=C(c2ccc(Cl)cc2)C1 [Example 19, Trans-4-(4-{[2-(4-chlorophenyl)-4,4-dimethylcyclohex-1-en-1-yl]methyl}piperazin-1-yl)-2-(1H-indol-5-yloxy)-N-({4-[(4-morpholin-4-ylcyclohexyl)amino]-3-nitrophenyl}sulfonyl)benzamide] |  | 465 nM | 465 nM | 465 nM
COCCNc1ccc(S(=O)(=O)NC(=O)c2ccc(N3CCN(CC4=C(c5ccc(Cl)cc5)CC(C)(C)CC4)CC3)cc2Oc2ccc3[nH]ccc3c2)cc1[N+](=O)[O-] [Example 20, 4-(4-{[2-(4-chlorophenyl)-4,4-dimethylcyclohex-1-en-1-yl]methyl}piperazin-1-yl)-2-(1H-indol-5-yloxy)-N-({4-[(2-methoxyethyl)amino]-3-nitrophenyl}sulfonyl)benzamide] |  | 191 nM | 191 nM | 191 nM
CC1(C)CCC(CN2CCN(c3ccc(C(=O)NS(=O)(=O)c4ccc(NC[C@@H]5CCCOC5)c([N+](=O)[O-])c4)c(Oc4ccc5[nH]ccc5c4)c3)CC2)=C(c2ccc(Cl)cc2)C1 [Example 21, 4-(4-{[2-(4-chlorophenyl)-4,4-dimethylcyclohex-1-en-1-yl]methyl}piperazin-1-yl)-2-(1H-indol-5-yloxy)-N-[(3-nitro-4-{[(3S)-tetrahydro-2H-pyran-3-ylmethyl]amino}phenyl)sulfonyl]benzamide] |  | 62 nM | 62 nM | 
CC1(C)CCC(CN2CCN(c3ccc(C(=O)NS(=O)(=O)c4ccc(NC[C@H]5CCCOC5)c([N+](=O)[O-])c4)c(Oc4ccc5[nH]ccc5c4)c3)CC2)=C(c2ccc(Cl)cc2)C1 [Example 22, 4-(4-{[2-(4-chlorophenyl)-4,4-dimethylcyclohex-1-en-1-yl]methyl}piperazin-1-yl)-2-(1H-indol-5-yloxy)-N-[(3-nitro-4-{[(3R)-tetrahydro-2H-pyran-3-ylmethyl]amino}phenyl)sulfonyl]benzamide] |  | 85 nM | 85 nM | 

Reference: patent publication US20240043404A1 (AbbVie Inc., priority 2009, published 2024)
